ChEMBL document CHEMBL1208771, “Improvement of both plasmepsin inhibitory activity and antimalarial activity by 2-aminoethylamino substitution” (Bioorg Med Chem Lett, 2010)

Key:
Plasmepsin II = Plasmepsin II (Plasmodium falciparum, UniProt P46925); experiment: Inhibition of Plasmodium falciparum plasmepsin-2
Plasmodium falciparum [1] = experiment: Antiplasmodial activity against Plasmodium falciparum D6 infected in human erythrocytes by SYBR green I fluorescence assay; assay type: functional, organism-based
Plasmodium falciparum [2] = experiment: Ratio of compound EC50 to chloroquine EC50 for Plasmodium falciparum D6 infected in human erythrocytes; assay type: functional

Plasmepsin II, sequence (P46925 whole entry): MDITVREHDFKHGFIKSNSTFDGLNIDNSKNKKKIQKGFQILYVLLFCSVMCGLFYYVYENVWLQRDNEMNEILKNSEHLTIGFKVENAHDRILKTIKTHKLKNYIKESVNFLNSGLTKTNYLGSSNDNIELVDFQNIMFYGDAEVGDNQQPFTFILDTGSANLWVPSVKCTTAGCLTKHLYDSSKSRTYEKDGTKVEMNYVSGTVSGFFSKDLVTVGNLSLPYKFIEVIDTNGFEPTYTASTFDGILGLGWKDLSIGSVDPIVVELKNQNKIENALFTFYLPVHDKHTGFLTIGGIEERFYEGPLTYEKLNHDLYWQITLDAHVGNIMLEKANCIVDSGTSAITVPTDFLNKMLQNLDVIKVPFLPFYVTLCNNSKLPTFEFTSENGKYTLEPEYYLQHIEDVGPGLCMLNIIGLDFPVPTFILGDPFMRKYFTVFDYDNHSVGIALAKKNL

Row | SMILES | Ki (Plasmepsin II) [nM] | EC50 (Plasmodium falciparum [1]) [nM] | Ratio EC50 (Plasmodium falciparum [2])
1 | Cc1cc(NCCN(C)C)cc(C)c1OCC(=O)N[C@@H](Cc1ccccc1)[C@H](O)C(=O)N1CSC(C)(C)[C@H]1C(=O)N[C@H]1c2ccccc2C[C@H]1O | 17 | 2000 | 
2 | CNCCN(C)c1cc(C)c(OCC(=O)N[C@@H](Cc2ccccc2)[C@H](O)C(=O)N2CSC(C)(C)[C@H]2C(=O)N[C@H]2c3ccccc3C[C@H]2O)c(C)c1 | 1.2 | 190 | 10
3 | CCNCCNc1cc(C)c(OCC(=O)N[C@@H](Cc2ccccc2)[C@H](O)C(=O)N2CSC(C)(C)[C@H]2C(=O)N[C@H]2c3ccccc3C[C@H]2O)c(C)c1 | 0.68 | 220 | 
4 | Cc1cccc(C)c1OCC(=O)N[C@@H](Cc1ccccc1)[C@H](O)C(=O)N1CSC(C)(C)[C@H]1C(=O)N[C@H]1c2ccccc2C[C@H]1O |  | 5000 | 
5 | Cc1cc(NCc2ccccn2)cc(C)c1OCC(=O)N[C@@H](Cc1ccccc1)[C@H](O)C(=O)N1CSC(C)(C)[C@H]1C(=O)N[C@H]1c2ccccc2C[C@H]1O |  | 560 | 
6 | CCN(CC)CCCC(C)Nc1ccnc2cc(Cl)ccc12 (stereo unspecified) [CHLOROQUINE] |  | 20 | 

Continued, in another order:

Row | Ki (Plasmepsin II) [nM] | EC50 (Plasmodium falciparum [1]) [nM] | SMILES | Ratio EC50 (Plasmodium falciparum [2])
7 | < 0.1 | 360 | Cc1cc(N(C)CCN(C)C)cc(C)c1OCC(=O)N[C@@H](Cc1ccccc1)[C@H](O)C(=O)N1CSC(C)(C)[C@H]1C(=O)N[C@H]1c2ccccc2C[C@H]1O | 
8 | 6.5 | 290 | Cc1cc(NCCN)cc(C)c1OCC(=O)N[C@@H](Cc1ccccc1)[C@H](O)C(=O)N1CSC(C)(C)[C@H]1C(=O)N[C@H]1c2ccccc2C[C@H]1O | 
9 | 9.1 | 1400 | CNCCNc1cc(C)c(OCC(=O)N[C@@H](Cc2ccccc2)[C@H](O)C(=O)N2CSC(C)(C)[C@H]2C(=O)N[C@H]2c3ccccc3C[C@H]2O)c(C)c1 | 
10 | 8.5 | 1400 | Cc1cc(N(C)CCN)cc(C)c1OCC(=O)N[C@@H](Cc1ccccc1)[C@H](O)C(=O)N1CSC(C)(C)[C@H]1C(=O)N[C@H]1c2ccccc2C[C@H]1O | 
11 | 5.1 | 1600 | CCN(CC)CCNc1cc(C)c(OCC(=O)N[C@@H](Cc2ccccc2)[C@H](O)C(=O)N2CSC(C)(C)[C@H]2C(=O)N[C@H]2c3ccccc3C[C@H]2O)c(C)c1 | 
12 | < 0.1 | 460 | CCN(CCN)c1cc(C)c(OCC(=O)N[C@@H](Cc2ccccc2)[C@H](O)C(=O)N2CSC(C)(C)[C@H]2C(=O)N[C@H]2c3ccccc3C[C@H]2O)c(C)c1 | 
13 | 4.2 | 790 | CCNCCN(CC)c1cc(C)c(OCC(=O)N[C@@H](Cc2ccccc2)[C@H](O)C(=O)N2CSC(C)(C)[C@H]2C(=O)N[C@H]2c3ccccc3C[C@H]2O)c(C)c1 | 
14 | 10 | 1100 | CCN(CC)CCN(CC)c1cc(C)c(OCC(=O)N[C@@H](Cc2ccccc2)[C@H](O)C(=O)N2CSC(C)(C)[C@H]2C(=O)N[C@H]2c3ccccc3C[C@H]2O)c(C)c1 | 
